Reference: BindingDB's records for PubMed 8930187 (Leiden University, 1996)

Biological target: Gamma-aminobutyric acid receptor subunit alpha-1 (Rattus norvegicus, UniProt P62813)
Sequence (P62813 whole entry): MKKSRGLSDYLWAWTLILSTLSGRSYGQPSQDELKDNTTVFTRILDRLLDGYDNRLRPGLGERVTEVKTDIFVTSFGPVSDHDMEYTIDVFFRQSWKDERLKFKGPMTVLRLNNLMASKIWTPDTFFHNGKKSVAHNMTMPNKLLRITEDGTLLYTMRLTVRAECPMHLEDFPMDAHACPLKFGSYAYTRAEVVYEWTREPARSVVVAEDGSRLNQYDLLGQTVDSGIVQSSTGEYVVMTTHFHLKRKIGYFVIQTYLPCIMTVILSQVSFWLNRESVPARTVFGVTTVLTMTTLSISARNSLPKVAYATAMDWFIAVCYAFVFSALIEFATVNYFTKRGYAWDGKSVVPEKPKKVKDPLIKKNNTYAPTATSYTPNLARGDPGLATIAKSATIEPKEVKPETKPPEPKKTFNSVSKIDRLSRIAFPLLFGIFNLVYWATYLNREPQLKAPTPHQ

SMILES	Ki [nM]
O=C1CN=C(c2ccccc2Cl)c2cc([N+](=O)[O-])ccc2N1 [5-(2-chlorophenyl)-7-nitro-1,3-dihydro-2H-1,4-benzodiazepin-2-one]	27
Cc1ncc2n1-c1ccc(Cl)cc1C(c1ccccc1F)=NC2 [12-chloro-9-(2-fluorophenyl)-3-methyl-2,4,8-triazatricyclo[8.4.0.0^{2,6}]tetradeca-1(10),3,5,8,11,13-hexaene]	26
O=C1Nc2ccc(Cl)cc2C(c2ccccc2)=NC1O (centres undefined) [CAS_604-75-1]	350
CN1C(=O)CN=C(c2ccccc2F)c2cc([N+](=O)[O-])ccc21 [Flunitrazepam]	29
